18 compounds from US20220274987A1, “PYRAZINO [1,2-B]QUINAZOLINE-3,6-DIONES DERIVATIVES, THEIR PRODUCTION AND USES THEREOF” (CIIMAR -CENTRO INTERDISCIPLINAR DE INVESTIGAÇÃO MARINHA E …, priority 2019, published 2022) can be followed below.

Values after ≈ are worked out from the molar mass of the structure shown. Where two headings read alike, the source gives them in different places.

Test [1] relates to Plasmodium falciparum 3D7 strain. In words: In vitro susceptibility assay of P. falciparum, SYBR Green I. The settings on record: for IC50: Plasmodium falciparum; for antimalarial activity (in words): P. falciparum 3D7. The test is classed as cell-based. Here is the method:
The principle of the in vitro susceptibility test to malaria is to assess the degree of development of parasites P. falciparum in the presence of different concentrations of the compounds.
In the present disclosure, the antimalarial activity was also evaluated. Each compound was lyophilized and solubilized in DMSO (Sigma-Aldrich) to obtain a final concentration of 5 mM. Some intermediate dilutions were made to achieve the final concentration of 10 μM in the first well of the plate.
In an embodiment, the culture of P. falciparum was carried out as follows. […] Parasites were cultivated at 5% hematocrit, 37° C. and atmosphere with 5% of CO2, human serum was replaced with 0.5% AlbuMAXII (Invitrogen™) in the culture medium. Synchronized cultures were obtained by treatments with a 5% (m/v) solution of D-sorbitol (Sigma-Aldrich).
In the present disclosure, the in vitro susceptibility assay of P. falciparum using SYBR Green I was carried out as follows. […] Briefly, early ring stage parasites (>80% of rings, 3% haematocrit and 1% parasitaemia) were tested in duplicate in a 96-well plate and incubated with the compounds for 48 h (37° C., 5% CO2), parasite growth was assessed with SYBR Green I (Thermo Fisher Scientific). Each compound was tested in concentrations ranging from 10 to 0.001 μM. Fluorescence intensity was measured with a microplate reader with excitation and emission wavelengths of 485 and 535 nm, respectively, and analysed by nonlinear regression using GraphPad Prism 5 demo version to determine

In test [2] the test system is S. aureus 66/1 (MRSA). The test is described as follows: MIC/MBC broth dilution (CLSI), MRSA. The test is classed as cell-based. The conditions noted are these: Staphylococcus aureus. From the text: (§1) In the present disclosure, two Gram-positive—Staphylococcus aureus ATCC 29213 and Enterococcus faecalis ATCC […] and two Gram-negative—Escherichia coli ATCC 25922 and Pseudomonas aeruginosa ATCC 27853—reference bacterial strains were used. When it was possible to determine a minimal inhibitory concentration (MIC) value for these strains, clinically relevant strains were also used. These included methicillin-resistant S. uareus (MRSA) 66/1, isolated from public buses, as well as a isolate sensitive to the most commonly used antibiotic families (S. aureus 40/61/24) and two vancomycin-resistant Enterococcus (VRE) strains isolated from river water, E. faecalis B3/101 and E. faecalis A5/102, which is sensitive to ampicillin. Frozen stocks of all strains were grown on Mueller-Hinton agar (MH-BioKar Diagnostics, Allone, France) at 37° C. for 24 h. All bacterial strains were sub-cultured on MH agar and incubated overnight at 37° C. before each assay, in order to obtain fresh cultures.
(§2) An initial screening of the antibacterial activity of the compounds was performed by the Kirby-Bauer disk diffusion method, as recommended by the Clinical and Laboratory Standards institute (CLSI). Briefly, sterile 6 mm blank paper disks (Oxoid, Basingstoke, England) impregnated with 15 μg of each compound were placed on inoculated MH agar plates. A blank disk with DMSO was used as a negative control. MH inoculated plates were incubated for 18-20 hours at 37° C. At the end of the incubation, the inhibition halos where measured. The minimal inhibitory concentration (MIC) was used to determine the antibacterial activity of each compound, in accordance with the recommendations of the CLSI. Two-fold serial dilutions of the compounds were prepared in Mueller-Hinton Broth 2 (MHB2-Sigma-Aldrich, St. Louis, Mo., USA) within the concentration range of 0.062-64 μg/mL. Cefotaxime (CTX) ranging between 0.031-16 μg/mL was used as a control. Sterility and growth controls were included in each assay. Purity check and colony counts of the inoculum suspensions were also performed in order to ensure that the final inoculum density closely approximates the intended number ([…]). The MIC was determined as the lowest concentration at which no visible growth was observed. The minimal bactericidal concentration (MBC) was assessed by spreading 10 μL of culture collected from wells showing no visible growth on MH agar plates. The MBC was determined as the lowest concentration at which no colonies grew after 16-18 hours incubation at 37° C. These assays were performed in duplicate.
Background: Broth dilution looks for growth in wells or tubes with falling amounts of substance.

Test [3] has as its system E. faecalis A5/102 (VRE). The test is described as follows: MIC/MBC broth dilution (CLSI), VRE sensitive to ampicillin. The test is classed as cell-based. The conditions noted are these: Enterococcus faecalis.
Source text: as §1, §2

For test [4], the system named is E. faecalis B3/101 (VRE). In words: MIC/MBC broth dilution (CLSI), VRE. The test is classed as cell-based. The conditions noted are these: Enterococcus faecalis.
Source text: as §1, §2

Test [5] relates to Staphylococcus aureus ATCC 29213. The test is described as follows: MIC/MBC broth dilution (CLSI), S. aureus reference strain. The test is classed as cell-based. The conditions noted are these: S. aureus ATCC 29213; for MBC / MIC: Staphylococcus aureus, ATCC29213; for MIC: read-out: MIC.
Source text: as §1, §2

Test [6] concerns E. faecalis ATCC 29212. The test is described as follows: MIC/MBC broth dilution (CLSI), E. faecalis reference strain. It is filed as cell-based, Enterococcus faecalis.
Source text: as §1, §2

Test [7] concerns S. aureus 40/61/24. In words: MIC/MBC broth dilution (CLSI), sensitive clinical isolate. It is filed as cell-based. The settings on record: Staphylococcus aureus.
Source text: as §1, §2

Setting [8] is: P. falciparum (3D7), 48 h, read-out: IC50.
Where [9] appears, read: Enterococcus faecalis, ATCC29212.
Setting [10] is: Enterococcus faecalis, ATCC29212, read-out: MIC.
The mark [11] stands for this setting: S. aureus 40/61/24, read-out: MIC.

Usually IC50 stands for the point on the concentration scale where inhibition reaches its midpoint. In turn, `CCN(CC)CCCC(C)Nc1ccnc2cc(Cl)ccc12` (centres unmarked) [CQ (6), chloroquine, reference compound] gave an IC50 in test [1] (3D7) of 0.01508 ± 8e-05 µM.

`CC(C)[C@@H]1NC(=O)[C@H](Cc2c[nH]c3ccccc23)n2c1nc1ccccc1c2=O` [Compound 10]: the “antimalarial activity (in words)” value in test [1] is “inactive”.

Consider `CC(C)[C@H]1NC(=O)[C@@H](Cc2c[nH]c3ccccc23)n2c1nc1ccccc1c2=O` [Compound 13], for which the “antimalarial activity (in words)” value in test [1] is recorded as “decreased activity”. The IC50 in test [1] (setting [8]) was 0.15 ± 0.05 µM.

As to `CC(C)C[C@@H]1NC(=O)[C@H](Cc2c[nH]c3ccccc23)n2c1nc1ccccc1c2=O` [Compound 14], in test [1], the “antimalarial activity (in words)” value is “inactive”.

Take `CC(C)C[C@H]1NC(=O)[C@H](Cc2c[nH]c3ccccc23)n2c1nc1ccccc1c2=O` [Compound 15]: in test [1] (setting [8]), the IC50 was 2 ± 0.32 µM.

For `CC(C)C[C@H]1NC(=O)[C@@H](Cc2c[nH]c3ccccc23)n2c1nc1ccccc1c2=O` [Compound 17], in test [1], the “antimalarial activity (in words)” value was “decreased activity”. Moreover, the IC50 in test [1] (setting [8]) is 0.47 ± 0.22 µM.

As to `O=C1N[C@H](Cc2ccc(O)cc2)c2nc3ccccc3c(=O)n2[C@H]1Cc1c[nH]c2ccccc12` [Compound 25], the 50% inhibitory concentration (IC50) in test [1] (setting [8]) amounted to 4.18 ± 0.03 µM.

For `C[C@H]1NC(=O)[C@@H](Cc2c[nH]c3ccccc23)n2c1nc1ccccc1c2=O` [Compound 26], the IC50 in test [1] (setting [8]) stood at 3.68 ± 0.62 µM.

By MBC is commonly meant the lowest tested concentration that kills the bacteria rather than only halting them. Broadly, the MIC is the smallest concentration in the dilution series that meets the test's criterion for growth inhibition. For `CC(C)[C@@H]1NC(=O)[C@@H](Cc2c[nH]c3ccccc23)n2c1nc1ccc(Cl)cc1c2=O` [Compound 27, (1S, 4R)-4-((1H-indol-3-yl)methyl)-8-chloro-1-isopropyl-1,2-dihydro-6H-pyrazino[2,1-b]quinazoline-3,6(4H)-dione], the minimum bactericidal concentration (MBC) in test [2], in test [3], in test [4], in test [5], in test [6] (setting [9]) and in test [7] (S. aureus 40/61/24) was greater than 64 µg/mL each time. For the same compound, the MIC in test [2] is greater than 64 µg/mL; in test [3] it was 64 µg/mL (≈ 152 µM); in test [4], greater than 64 µg/mL; in test [5], 32 µg/mL (≈ 76 µM); in test [6], 64 µg/mL (≈ 152 µM); in test [6] (setting [9]) it was 32 µg/mL (≈ 76 µM). The compound also gave a minimal inhibitory concentration (MIC) in test [7] (40/61/24) of 64 µg/mL (≈ 152 µM). The “antibacterial (inhibitory) effect (in words)” value in test [5] and in test [6] was “inhibitory effect” each time.

On to `CC(C)[C@@H]1NC(=O)[C@@H](Cc2c[nH]c3ccccc23)n2c1nc1c(Cl)cc(Cl)cc1c2=O` [Compound 30, (1S, 4R)-4-((1H -indol-3-yl)methyl)-8,10-dichloro-1-isopropyl-1,2-dihydro-6H-pyrazino[2,1-b]quinazoline-3,6(4H)-dione], for which the MBC in test [2], in test [5], in test [6] (setting [9]) and in test [7] (S. aureus 40/61/24) was greater than 64 µg/mL in each case. Also, the MIC was greater than 64 µg/mL in test [2], 16 µg/mL (≈ 35.1 µM) in test [5], greater than 64 µg/mL in test [6] (setting [10]) and greater than 64 µg/mL in test [7] (setting [11]). Moreover, the “antibacterial (inhibitory) effect (in words)” value in test [5] is “inhibitory effect”.

For `CCC(C)[C@@H]1NC(=O)[C@@H](Cc2c[nH]c3ccccc23)n2c1nc1c(Cl)cc(Cl)cc1c2=O` (stereo partly drawn) [Compound 32, (1S, 4R)-4((1H-indol-3-yl)methyl)-1-((S)-sec-butyl) 8,10-dichloro-1,2-dihydro-6H-pyrazinoi[2,1-b]quinazoline-3,6(4H)-dione], half-maximal inhibition in test [1] (3D7, 48 h) (IC50) required 1.51 ± 0.53 µM. Besides, the minimal bactericidal concentration (MBC) in test [2], in test [5], in test [6] (setting [9]) and in test [7] (S. aureus 40/61/24) was greater than 64 µg/mL each time. Further, the minimum inhibitory concentration (MIC) in test [2] was 8 µg/mL (≈ 17 µM); in test [5], 4 µg/mL (≈ 8.52 µM); in test [6] (setting [10]), greater than 64 µg/mL; in test [7] (40/61/24) it was 8 µg/mL (≈ 17 µM). Moreover, in test [5], the “antibacterial (inhibitory) effect (in words)” value is reported as “inhibitory effect”.

With `CC(C)C[C@@H]1NC(=O)[C@@H](Cc2c[nH]c3ccccc23)n2c1nc1ccc(I)cc1c2=O` [Compound 35, (1S,4R)-4-((1H-indol-3-yl)methyl)-8-iodo-1-isobutyl-1,2-dihydro-6H-pyrazino[2,1-b]quinazoline-3,6(4H)-dione], the MBC in test [2], in test [5], in test [6] (setting [9]) and in test [7] (S. aureus 40/61/24) was greater than 64 µg/mL throughout. Also, the MIC was greater than 64 µg/mL in test [2], 16 µg/mL (≈ 30.4 µM) in test [5], greater than 64 µg/mL in test [6] (setting [10]) and 64 µg/mL (≈ 122 µM) in test [7] (setting [11]). For the same compound, the “antibacterial (inhibitory) effect (in words)” value in test [5] is given as “inhibitory effect”.

Turning to `CC(C)C[C@@H]1NC(=O)[C@@H](Cc2c[nH]c3ccccc23)n2c1nc1ccc(Br)cc1c2=O` [Compound 36, (1s,4R)-4-((1H-indol-3-yl)methyl)-8-bromo-1-isobutyl-1,2-dihydro-6H-pyrazino[2,1-b]quinazoline-3,6(4H)-dione], the minimal bactericidal concentration (MBC) in test [2], in test [5], in test [6] (setting [9]) and in test [7] (S. aureus 40/61/24) was greater than 64 µg/mL throughout. For the same compound, the MIC in test [2] was greater than 64 µg/mL; in test [5], 16 µg/mL (≈ 33.4 µM); in test [6] (setting [10]), greater than 64 µg/mL; in test [7] (setting [11]), greater than 64 µg/mL. Further, the “antibacterial (inhibitory) effect (in words)” value in test [5] is reported as “inhibitory effect”.

In turn, `O=C1N[C@@H](Cc2ccc(OCc3ccccc3)cc2)c2nc3c(Cl)cc(Cl)cc3c(=O)n2[C@@H]1Cc1c[nH]c2ccccc12` [Compound 38] yielded an IC50 in test [1] (3D7, 48 h) of 4 ± 0.02 µM.

Take `CC(C)C[C@@H]1NC(=O)[C@@H](Cc2c[nH]c3ccccc23)n2c1nc1ccc(O)cc1c2=O` [Compound 39]: the IC50 in test [1] (setting [8]) is 0.73 ± 0.07 µM.

Turning to `CC(C)C[C@@H]1NC(=O)[C@@H](Cc2c[nH]c3ccccc23)n2c1nc1cnccc1c2=O` [Compound 42, (1S,4R)-4-((1H-indol-3-yl)methyl)-1-isobutyl-1,2-dihydro-6H-pyrazino[1,2-α]pyrido[3,4-d]pyrimidine-3,6(4H)-dione], in test [1] (setting [8]), the IC50 worked out at 4 ± 0.02 µM.

For `CC(C)C[C@@H]1NC(=O)[C@@H](Cc2c[nH]c3ccccc23)n2c1nc1ncccc1c2=O` [Compound 43], in test [1] (setting [8]), the IC50 came out at 3.76 µM.

`CC(C)C[C@@H]1NC(=O)[C@@H](Cc2cc3ccccc3[nH]2)n2c1nc1cc(-c3nnnn3C)ccc1c2=O` [Compound 44, (1S,4R)-4-((1H-indol-2-yl)methyl)-1-isobutyl-9-(1-methyl-1H-tetrazol-5-yl)-1,2-dihydro-6H-pyrazino [2,1-b]quinazoline-3,6(4H)-dione]: the “antimalarial activity (in words)” value in test [1] is on record as “weak activity”. Besides, the IC50 in test [1] (setting [8]) is 1.02 ± 0.27 µM.
